Laboratory results published in the supplement of paper PMC10307832.

How the values were obtained:
Test in all cases: relative viability (nuclei count vs DMSO), 5 days (fraction); higher = more cells survive
[1] = compound: CCn1c(-c2nonc2N)nc2cnc(Oc3cccc(NC(=O)c4ccc(OCCN5CCOCC5)cc4)c3)cc21 + CC(C)C[C@H](NC(=O)[C@H](Cc1ccccc1)NC(=O)c1cnccn1)B(O)O [Bortezomib] (partner 0.002 µM)
Procedure, shortened: (§1)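 Five library-drug doses in √10 steps were combined with a fixed anchor-drug dose, or a single drug was given alone, by pin tool to lung cancer cell lines in 1536-well plates the day after seeding. Nuclei were stained and counted after 5 days. Relative viability is the nuclei count in treated wells over that in vehicle wells, taken as the median of duplicate plates.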

[2] = compound: CCC1=CN=CN=C1N2CCN(CC2)CC3=NC4=C(N3)C=C(C=C4)C(F)(F)F + CC(=O)c1c(C)c2cnc(Nc3ccc(N4CCNCC4)cn3)nc2n(C2CCCC2)c1=O [Palbociclib] (partner 0.5 µM)
Procedure, shortened: as §1

[3] = compound: CCn1c(-c2nonc2N)nc2cnc(Oc3cccc(NC(=O)c4ccc(OCCN5CCOCC5)cc4)c3)cc21 + CS(=O)(=O)CCNCc1ccc(-c2ccc3ncnc(Nc4ccc(OCc5cccc(F)c5)c(Cl)c4)c3c2)o1 [Lapatinib] (partner 2 µM)
Procedure, shortened: as §1

[4] = compound: CCn1c(-c2nonc2N)nc2cnc(Oc3cccc(NC(=O)c4ccc(OCCN5CCOCC5)cc4)c3)cc21 + COc1cc2c(Oc3ccc(NC(=O)C4(C(=O)Nc5ccc(F)cc5)CC4)cc3F)ccnc2cc1OCCCN1CCOCC1 [Foretinib] (partner 0.25 µM)
Procedure, shortened: as §1

Row | Cell Line | relative viability ([1]; first compound 0.04 µM) | relative viability ([1]; first compound 0.1265 µM) | relative viability ([1]; first compound 0.4 µM) | relative viability ([1]; first compound 1.265 µM) | relative viability ([1]; first compound 4 µM) | relative viability ([2]; first compound 0.04 µM) | relative viability ([2]; first compound 0.1265 µM) | relative viability ([2]; first compound 0.4 µM) | relative viability ([2]; first compound 1.265 µM) | relative viability ([2]; first compound 4 µM) | relative viability ([3]; first compound 0.04 µM) | relative viability ([3]; first compound 0.1265 µM) | relative viability ([3]; first compound 0.4 µM) | relative viability ([3]; first compound 1.265 µM) | relative viability ([3]; first compound 4 µM) | relative viability ([4]; first compound 0.04 µM) | relative viability ([4]; first compound 0.1265 µM) | relative viability ([4]; first compound 0.4 µM) | relative viability ([4]; first compound 1.265 µM) | relative viability ([4]; first compound 4 µM)
1 | NCI-H647 | 0.847 | 0.654 | 0.614 | 0.536 | 0.631 | 0.518 | 0.345 | 0.346 | 0.292 | 0.374 | 1.26 | 0.774 | 0.634 | 0.526 | 0.548 | 1.27 | 1.09 | 0.913 | 0.668 | 0.715
2 | NCI-H650 | 1.14 | 0.631 | 0.349 | 0.295 | 0.374 | 0.318 | 0.344 | 0.292 | 0.276 | 0.313 | 1.29 | 0.686 | 0.5 | 0.269 | 0.472 | 1.12 | 0.774 | 0.531 | 0.366 | 0.438
3 | NCI-H661 | 0.896 | 0.865 | 0.815 | 0.608 | 0.616 | 0.378 | 0.398 | 0.416 | 0.386 | 0.38 | 0.47 | 0.457 | 0.457 | 0.39 | 0.385 | 0.966 | 0.846 | 0.925 | 0.801 | 0.522
4 | NCI-H727 | 1.44 | 0.983 | 0.787 | 0.97 | 0.88 | 0.688 | 0.644 | 0.526 | 0.576 | 0.661 | 1.12 | 0.894 | 0.339 | 0.868 | 0.569 | 1.08 | 0.888 | 0.852 | 1.15 | 1.15
5 | NCI-H838 | 0.729 | 0.397 | 0.319 | 0.385 | 0.31 | 0.231 | 0.22 | 0.215 | 0.178 | 0.218 | 0.804 | 0.485 | 0.323 | 0.281 | 0.261 | 0.771 | 0.7 | 0.562 | 0.378 | 0.371
6 | NCI-H1355 | 1.22 | 1.27 | 1.02 | 0.72 | 0.621 | 0.412 | 0.387 | 0.407 | 0.373 | 0.368 | 1.07 | 0.978 | 0.712 | 0.62 | 0.597 | 1.05 | 0.948 | 1.03 | 0.955 | 1
7 | NCI-H1437 | 0.518 | 0.427 | 0.514 | 0.499 | 0.364 | 0.324 | 0.309 | 0.263 | 0.303 | 0.269 | 0.826 | 0.679 | 0.58 | 0.536 | 0.5 | 1.26 | 1.31 | 1.23 | 1.06 | 0.865
8 | NCI-H1650 | 0.258 | 0.21 | 0.196 | 0.209 | 0.211 | 0.325 | 0.311 | 0.348 | 0.223 | 0.39 | 1.04 | 0.747 | 0.74 | 0.671 | 0.694 | 1.19 | 1.32 | 1.49 | 1.23 | 0.969
9 | NCI-H1651 | 0.9 | 0.94 | 0.824 | 0.496 | 0.86 | 0.558 | 0.562 | 0.513 | 0.463 | 0.532 | 0.998 | 0.819 | 0.639 | 0.49 | 0.421 | 1 | 0.963 | 0.959 | 0.662 | 0.455
10 | NCI-H1666 | 0.785 | 1.02 | 0.65 | 0.459 | 0.385 | 0.609 | 0.609 | 0.669 | 0.659 | 0.608 | 0.792 | 0.777 | 0.592 | 0.498 | 0.329 | 1.1 | 1.11 | 1.2 | 0.767 | 0.442
11 | NCI-H1734 | 0.889 | 0.837 | 0.511 | 0.412 | 0.35 | 0.33 | 0.362 | 0.344 | 0.291 | 0.317 | 1.03 | 0.93 | 0.6 | 0.38 | 0.403 | 0.97 | 0.882 | 0.69 | 0.599 | 0.44
12 | NCI-H1755 | 0.97 | 0.781 | 0.649 | 0.533 | 0.512 | 0.475 | 0.478 | 0.45 | 0.437 | 0.49 | 1.11 | 0.928 | 0.713 | 0.641 | 0.6 | 0.907 | 0.957 | 0.916 | 0.619 | 0.645
13 | NCI-H1915 | 1.16 | 0.94 | 0.958 | 0.653 | 0.314 | 0.478 | 0.525 | 0.515 | 0.451 | 0.522 | 1.11 | 0.949 | 0.956 | 0.611 | 0.387 | 1.09 | 1.14 | 1.1 | 1.08 | 1.12
14 | NCI-H1975 | 0.244 | 0.263 | 0.227 | 0.177 | 0.165 | 0.62 | 0.479 | 0.568 | 0.461 | 0.577 | 0.778 | 0.729 | 0.477 | 0.435 | 0.331 | 0.869 | 0.717 | 0.664 | 0.412 | 0.281
15 | NCI-H1993 | 1.09 | 1.16 |  | 0.882 | 1.02 | 0.661 | 0.586 | 0.622 | 0.586 | 0.654 | 0.797 | 0.798 |  | 0.754 | 0.734 | 0.84 | 0.765 | 0.659 | 0.795 | 0.723
16 | NCI-H2009 | 1.06 | 0.875 | 0.647 | 0.322 | 0.318 | 0.195 | 0.238 | 0.184 | 0.15 | 0.0584 | 1.02 | 0.957 | 0.575 | 0.312 | 0.314 | 1.07 | 0.974 | 0.921 | 0.642 | 0.356
